Results taken from publication PMC9930359, “Cytotoxicity of the methanol extracts and compounds of Brucea antidysenterica (Simaroubaceae) towards multifactorial drug-resistant human cancer cell lines” (BMC Complementary Medicine and Therapies, 2023).

What was measured:
CCRF-CEM leukemia cells = test: Resazurin reduction assay (RRA), cytotoxicity; format: cell-based; conditions: Homo sapiens, 72 h
Description: (§2) In this work, 9 cancer cell lines with various drug resistance patterns as well as AML12 hepatocytes as normal control cell line were used. […] The AML12 hepatocytes were used for the comparison of the activities of the samples with HepG2 [40]. […] The RPMI-1640 medium was used for the culture of CCRF-CEM and CEM/ADR5000 cells whilst DMEM medium was used for carcinoma cells. The culture media were supplemented (complete medium) with 10% fetal bovine serum and 1% penicillin/streptomycin (Invitrogen, Eggenstein, Germany). […] To maintain the resistance phenotype of the resistant carcinoma cell lines such as MDA-MB-231/BCRP and HCT116 p53^−/−, and U87MG.ΔEGFR cells, the complete DMEM medium containing geneticin at 800 ng/ml and 400 µg/ml, respectively were used [41, 42].
(§3) Cells were cultured in a standard condition consisted of a humidified 5% CO2 atmosphere and an incubation temperature of 37 °C. The tested concentration ranges were 0.63—80 µg/mL for the botanicals and 0.78—100 µM for phytochemicals. The incubation time of the treated cells was 72 h, and the fluorescence was measured with Infinite M2000 Pro™ plate reader (Tecan, Crailsheim, Germany). The wavelengths used were 544 nm for the excitation and 590 nm for the emission. […] The degree of resistance (D.R.) was set as the ratio of the IC50 values of samples in the resistant cell line vs that of corresponding sensitive cell line. The selectivity index (S.I.) was the ratio of the IC50 value of AML12 hepatocytes vs. that of HepG2 cells [13, 48].

CEM/ADR5000 cells = test: Resazurin reduction assay (RRA), cytotoxicity; format: cell-based, human; conditions: for IC50: Homo sapiens, CEM/ADR5000, 72 h; for Degree of resistance (D.R.): ratio of IC50 CEM/ADR5000 vs CCRF-CEM
Description: (§4) The RPMI-1640 medium was used for the culture of CCRF-CEM and CEM/ADR5000 cells whilst DMEM medium was used for carcinoma cells. The culture media were supplemented (complete medium) with 10% fetal bovine serum and 1% penicillin/streptomycin (Invitrogen, Eggenstein, Germany). […] To maintain the resistance phenotype of the resistant carcinoma cell lines such as MDA-MB-231/BCRP and HCT116 p53^−/−, and U87MG.ΔEGFR cells, the complete DMEM medium containing geneticin at 800 ng/ml and 400 µg/ml, respectively were used [41, 42].
as §3

MDA-MB-231-pcDNA cells = test: Resazurin reduction assay (RRA), cytotoxicity; format: cell-based; conditions: Homo sapiens, 72 h
Description: as §2, §3

HCT116 p53+/+ cells = test: Resazurin reduction assay (RRA), cytotoxicity; format: cell-based; conditions: Homo sapiens, HCT-116, 72 h
Description: as §2, §3

HCT116 p53−/− cells = test: Resazurin reduction assay (RRA), cytotoxicity; format: cell-based, human; conditions: for IC50: Homo sapiens, HCT-116, HCT116 p53−/−, 72 h; for Degree of resistance (D.R.): ratio of IC50 HCT116 p53−/− vs HCT116 p53+/+
Description: as §4, §3

U87MG cells = test: Resazurin reduction assay (RRA), cytotoxicity; format: cell-based; conditions: Homo sapiens, U-87 MG, 72 h
Description: as §2, §3

U87MG.ΔEGFR cells = test: Resazurin reduction assay (RRA), cytotoxicity; format: cell-based, human; conditions: for IC50: Homo sapiens, U87MG.ΔEGFR, 72 h; for Degree of resistance (D.R.): ratio of IC50 U87.MGΔEGFR vs U87.MG
Description: as §4, §3

HepG2 cells = test: Resazurin reduction assay (RRA), cytotoxicity; format: cell-based; conditions: Homo sapiens, HepG2, 72 h
Description: as §2, §3

AML12 hepatocytes = test: Resazurin reduction assay (RRA), cytotoxicity on normal hepatocytes; format: cell-based; conditions: for IC50: Mus musculus, AML12 normal hepatocytes, 72 h; for Selectivity index (S.I.): ratio of IC50 in AML12 vs IC50 in HepG2 cells
Description: as §4, §3

MDA-MB-231-BCRP cells = test: Resazurin reduction assay (RRA), cytotoxicity; conditions: Homo sapiens, MDA-MB-231/BCRP, 72 h
Description: as §4, §3

CCRF-CEM cells [1] = test: Mitochondrial membrane potential (MMP), JC-1 staining, flow cytometry; format: cell-based, human; conditions: 10 µM, 24 h
Description: (§1) The modification of the MMP as well as the ROS levels after the application of BAL, and flavonolignan 2 at ¼ IC50, ½ IC50, IC50, and 2 × IC50 to CCRF-CEM cells (1 × 10^6) was performed by flow cytometry. DMSO was used as solvent control while valinomycin served as a positive control. The cells were incubated for 24 h and further stained for 30 min with JC-1 [45] and measured (1 × 10^4 cells) in an LSR-Fortessa FACS analyzer (Becton–Dickinson). For ROS determination, CCEF-CEM cells were similarly treated BAL, the flavonolignan 2, hydrogen peroxide (H2O2; positive control), DMSO (solvent control) as in the MMP analysis, then incubated for 24 h. They were further stained with H2DCFH-DA and measured (1 × 10^4 cells) in an LSR-Fortessa FACS analyzer.

PC-3 = system: PC-3; set-up: method as in PMID 31816856; conditions: on PC-3 ref 30; cited from earlier work
CCRF-CEM cells [2] = test: Reactive oxygen species (ROS), H2DCFH-DA staining, flow cytometry; format: cell-based, human; conditions: 50 µM, 24 h
Description: as §1

| Molecule | IC50 (CCRF-CEM leukemia cells) [µM] | IC50 (CEM/ADR5000 cells) [µM] | Degree of resistance (D.R.) (CEM/ADR5000 cells) | IC50 (MDA-MB-231-pcDNA cells) [µM] | IC50 (HCT116 p53+/+ cells) [µM] | IC50 (HCT116 p53−/− cells) [µM] | Degree of resistance (D.R.) (HCT116 p53−/− cells) | IC50 (U87MG cells) [µM] | IC50 (U87MG.ΔEGFR cells) [µM] | Degree of resistance (D.R.) (U87MG.ΔEGFR cells) | IC50 (HepG2 cells) [µM] | IC50 (AML12 hepatocytes) [µM] | Selectivity index (S.I.) (AML12 hepatocytes) | IC50 (MDA-MB-231-BCRP cells) [µM] | further results |
| --- | --- | --- | --- | --- | --- | --- | --- | --- | --- | --- | --- | --- | --- | --- | --- |
| O=c1ccc2nccc3c4ccccc4n1c23 [Compound 5, canthin-6-one] | 44.2 ± 3.52 | > 100 | > 2.26 | > 100 | 24.7 ± 2.16 | 21 ± 1.72 | 0.85 | 19.6 ± 1.55 | 21.1 ± 1.49 | 1.08 | 26.1 ± 1.63 | > 100 | > 3.83 | > 100 | – |
| CC(C)[C@@H]1NC(=O)[C@H](C)OC(=O)[C@@H](C(C)C)NC(=O)[C@@H](C(C)C)OC(=O)[C@H](C(C)C)NC(=O)[C@H](C)OC(=O)[C@@H](C(C)C)NC(=O)[C@@H](C(C)C)OC(=O)[C@H](C(C)C)NC(=O)[C@H](C)OC(=O)[C@@H](C(C)C)NC(=O)[C@@H](C(C)C)OC1=O [valinomycin, reference compound] | – | – | – | – | – | – | – | – | – | – | – | – | – | – | cells with MMP disrupted (CCRF-CEM cells [1]): 16.8%; cells with MMP loosed (CCRF-CEM cells [1]): 44.5%; healthy cells (intact MMP) (CCRF-CEM cells [1]): 38.8% |
| C[C@@H](O)C1CCC2C3CC=C4C[C@@H](O[C@@H]5OC[C@H](O)[C@H](O)[C@H]5O[C@@H]5O[C@H](CO)[C@@H](O)[C@H](O)[C@H]5O)CC[C@]4(C)C3CC[C@@]21C (stereo partly drawn) [Compound 4, (20R)-O-(3)-β-D-glucopyranosyl(1 → 2)-α-L-arabinopyranosyl-pregn-5-en-3β,20-diol] | 32 ± 2.16 | > 100 | > 3.13 | > 100 | > 100 | 32.2 ± 2.37 | < 0.32 | 28.3 ± 2.08 | 28.3 ± 1.66 | 1.00 | 31.2 ± 2.11 | > 100 | > 3.21 | > 100 | melting point: 258 to 260 °C |
| bruceacanthinones A | – | – | – | – | – | – | – | – | – | – | – | – | – | – | IC50 (PC-3): 196 µM |
| OO [Compound H2O2, hydrogen peroxide, reference compound] | – | – | – | – | – | – | – | – | – | – | – | – | – | – | ROS levels in treated cells (CCRF-CEM cells [2]): 94.30% |
